According to ChEMBL document CHEMBL3885861, “Open TG-GATES”:

Species on record: Rattus norvegicus
Experiment: Open TG-GATES - Regimen: Single
Format: toxicity, organism-based, Sprague-Dawley
Design: regimen Single, gender Male, age 6 weeks
Conditions: in vivo, po, 15 mg/kg, route gavage; for TC / TP / gamma-GTP / ALP / ALT / AST / BUN / CRE / Ca / Cl / DBIL / GLC / IP / K / LDH / Na / PL / RALB / TBIL: tissue Plasma; for APTT / Bas / Eos / Fbg / Hb / Ht / Lym / MCH / MCHC / MCV / Mono / Neu / PT / Plat / RBC / Ret / WBC: tissue Blood; for KIDNEY_L / KIDNEY_R / KIDNEY_TOTAL: tissue Kidney; for LIVER: tissue Liver

O=P1(N(CCCl)CCCl)NCCCO1 (stereo not given) [CYCLOPHOSPHAMIDE ANHYDROUS]
TC (3 h, dose level Low): 68.6 mg/dL
TP (3 h, dose level Low): 5.2 g/dL
gamma-GTP (3 h, dose level Low): 1.2 IU/L
TERMINAL_BW (6 h, dose level High): 193.9 g
TERMINAL_BW (6 h, dose level Low): 190.6 g
APTT (6 h, dose level High): 21.7 s
Bas (6 h, dose level High): 0%
Eos (6 h, dose level High): 0.6%
Fbg (6 h, dose level High): 313.4 mg/dL
Hb (6 h, dose level High): 13.3 g/dL
Ht (6 h, dose level High): 39.9%
Lym (6 h, dose level High): 79.4%
MCH (6 h, dose level High): 21.5 pg
MCHC (6 h, dose level High): 33.3%
MCV (6 h, dose level High): 64.8 fL
Mono (6 h, dose level High): 2.2%
Neu (6 h, dose level High): 17.4%
PT (6 h, dose level High): 15.6 s
Plat (6 h, dose level High): 122.7 x10_4/uL
RBC (6 h, dose level High): 616.8 x10_4/ul
Ret (6 h, dose level High): 9%
WBC (6 h, dose level High): 68.2 x10_2/uL
APTT (6 h, dose level Low): 20.3 s
Eos (6 h, dose level Low): 1.2%
Fbg (6 h, dose level Low): 302 mg/dL
Hb (6 h, dose level Low): 13 g/dL
Ht (6 h, dose level Low): 38.9%
Lym (6 h, dose level Low): 80.6%
MCH (6 h, dose level Low): 20.9 pg
MCHC (6 h, dose level Low): 33.4%
MCV (6 h, dose level Low): 62.4 fL
Mono (6 h, dose level Low): 2.4%
Neu (6 h, dose level Low): 15.8%
PT (6 h, dose level Low): 13.9 s
Plat (6 h, dose level Low): 115.7 x10_4/uL
RBC (6 h, dose level Low): 624 x10_4/ul
Ret (6 h, dose level Low): 8.9%
WBC (6 h, dose level Low): 71.4 x10_2/uL
KIDNEY_L (6 h, dose level High): 0.8 g
KIDNEY_R (6 h, dose level High): 0.9 g
KIDNEY_TOTAL (6 h, dose level High): 1.7 g
KIDNEY_R (6 h, dose level Low): 0.8 g
LIVER (6 h, dose level High): 8.4 g
LIVER (6 h, dose level Low): 7.6 g
ALP (6 h, dose level High): 1569.4 IU/L
ALT (6 h, dose level High): 39.2 IU/L
AST (6 h, dose level High): 74.8 IU/L
BUN (6 h, dose level High): 10.2 mg/dL
CRE (6 h, dose level High): 0.1 mg/dL
Ca (6 h, dose level High): 10.7 mg/dL
Cl (6 h, dose level High): 106.8 meq/L
DBIL (6 h, dose level High): 0 mg/dL
GLC (6 h, dose level High): 185.8 mg/dL
IP (6 h, dose level High): 10.4 mg/dL
K (6 h, dose level High): 4.5 meq/L
LDH (6 h, dose level High): 216.8 IU/L
Na (6 h, dose level High): 143.2 meq/L
PL (6 h, dose level High): 144 mg/dL
RALB (6 h, dose level High): 2.9 g/dL
TBIL (6 h, dose level High): 0.032 mg/dL
TC (6 h, dose level High): 81.8 mg/dL
TP (6 h, dose level High): 5.4 g/dL
gamma-GTP (6 h, dose level High): 1.2 IU/L
ALP (6 h, dose level Low): 1365.4 IU/L
ALT (6 h, dose level Low): 33.2 IU/L
AST (6 h, dose level Low): 70.4 IU/L
BUN (6 h, dose level Low): 8.4 mg/dL
CRE (6 h, dose level Low): 0.2 mg/dL
Ca (6 h, dose level Low): 10.9 mg/dL
Cl (6 h, dose level Low): 107 meq/L
DBIL (6 h, dose level Low): 0.014 mg/dL
GLC (6 h, dose level Low): 168.2 mg/dL
IP (6 h, dose level Low): 9 mg/dL
K (6 h, dose level Low): 4.3 meq/L
LDH (6 h, dose level Low): 83.8 IU/L
Na (6 h, dose level Low): 142 meq/L
PL (6 h, dose level Low): 141.6 mg/dL
RALB (6 h, dose level Low): 2.5 g/dL
TBIL (6 h, dose level Low): 0.072 mg/dL
TC (6 h, dose level Low): 79 mg/dL
TP (6 h, dose level Low): 5.3 g/dL
TERMINAL_BW (9 h, dose level High): 185.5 g
TERMINAL_BW (9 h, dose level Low): 184.1 g
APTT (9 h, dose level High): 20.7 s
Bas (9 h, dose level High): 0%
Eos (9 h, dose level High): 0.8%
Fbg (9 h, dose level High): 320.4 mg/dL
Hb (9 h, dose level High): 13.2 g/dL
Ht (9 h, dose level High): 39.3%
Lym (9 h, dose level High): 78%
MCH (9 h, dose level High): 21 pg
MCHC (9 h, dose level High): 33.6%
MCV (9 h, dose level High): 62.4 fL
Mono (9 h, dose level High): 2.2%
Neu (9 h, dose level High): 19%
PT (9 h, dose level High): 16.2 s
Plat (9 h, dose level High): 113.9 x10_4/uL
RBC (9 h, dose level High): 631 x10_4/ul
Ret (9 h, dose level High): 7.3%
WBC (9 h, dose level High): 57.8 x10_2/uL
APTT (9 h, dose level Low): 16.7 s
Eos (9 h, dose level Low): 1%
Fbg (9 h, dose level Low): 285.6 mg/dL
Hb (9 h, dose level Low): 12.7 g/dL
Ht (9 h, dose level Low): 37.6%
Lym (9 h, dose level Low): 75%
MCH (9 h, dose level Low): 20.8 pg
MCHC (9 h, dose level Low): 33.7%
MCV (9 h, dose level Low): 61.8 fL
Neu (9 h, dose level Low): 21.4%
PT (9 h, dose level Low): 14 s
Plat (9 h, dose level Low): 120.4 x10_4/uL
RBC (9 h, dose level Low): 608.4 x10_4/ul
Ret (9 h, dose level Low): 8.8%
WBC (9 h, dose level Low): 67.8 x10_2/uL
KIDNEY_L (9 h, dose level High): 0.8 g
KIDNEY_R (9 h, dose level High): 0.9 g
KIDNEY_TOTAL (9 h, dose level High): 1.7 g
KIDNEY_R (9 h, dose level Low): 0.8 g
KIDNEY_TOTAL (9 h, dose level Low): 1.6 g
LIVER (9 h, dose level High): 7.5 g
LIVER (9 h, dose level Low): 6.9 g
ALP (9 h, dose level High): 1487.4 IU/L
ALT (9 h, dose level High): 34.8 IU/L
AST (9 h, dose level High): 67.4 IU/L
BUN (9 h, dose level High): 9.2 mg/dL
CRE (9 h, dose level High): 0.2 mg/dL
Ca (9 h, dose level High): 10.5 mg/dL
Cl (9 h, dose level High): 107.4 meq/L
DBIL (9 h, dose level High): 0.002 mg/dL
GLC (9 h, dose level High): 186 mg/dL
IP (9 h, dose level High): 10.1 mg/dL
K (9 h, dose level High): 3.9 meq/L
LDH (9 h, dose level High): 185.4 IU/L
Na (9 h, dose level High): 143.4 meq/L
PL (9 h, dose level High): 123.8 mg/dL
RALB (9 h, dose level High): 3 g/dL
TBIL (9 h, dose level High): 0.032 mg/dL
TC (9 h, dose level High): 69.2 mg/dL
TP (9 h, dose level High): 5.4 g/dL
